Test results taken from US4996225A, “Tri-phenyl alkane derivatives and their oestrogenic, anti-oestrogenic and progestanic uses” (Farmos Group Ltd., priority 1982, dated 1991).
pIC50: −log10 of the molar value. “Also recorded” adds a separate entry of the source.

Assays:
oestrogen receptors = molecular target: T1, oestrogen receptors (Rattus norvegicus, UniProt P06211); assay: affinity for oestrogen receptors, competition with 3H-17-β-estradiol in rat uterus cytosol (dextran-charcoal method); format: binding; conditions: read-out: Estrogen receptor affinity (concentration of compound where 50% competition (inhibition) with 3H-estradiol occurred)
T1 construct: rat uterus cytosol preparation; from tissue; host or cells: rat uterus cytosol
T1 sequence (P06211 1-600): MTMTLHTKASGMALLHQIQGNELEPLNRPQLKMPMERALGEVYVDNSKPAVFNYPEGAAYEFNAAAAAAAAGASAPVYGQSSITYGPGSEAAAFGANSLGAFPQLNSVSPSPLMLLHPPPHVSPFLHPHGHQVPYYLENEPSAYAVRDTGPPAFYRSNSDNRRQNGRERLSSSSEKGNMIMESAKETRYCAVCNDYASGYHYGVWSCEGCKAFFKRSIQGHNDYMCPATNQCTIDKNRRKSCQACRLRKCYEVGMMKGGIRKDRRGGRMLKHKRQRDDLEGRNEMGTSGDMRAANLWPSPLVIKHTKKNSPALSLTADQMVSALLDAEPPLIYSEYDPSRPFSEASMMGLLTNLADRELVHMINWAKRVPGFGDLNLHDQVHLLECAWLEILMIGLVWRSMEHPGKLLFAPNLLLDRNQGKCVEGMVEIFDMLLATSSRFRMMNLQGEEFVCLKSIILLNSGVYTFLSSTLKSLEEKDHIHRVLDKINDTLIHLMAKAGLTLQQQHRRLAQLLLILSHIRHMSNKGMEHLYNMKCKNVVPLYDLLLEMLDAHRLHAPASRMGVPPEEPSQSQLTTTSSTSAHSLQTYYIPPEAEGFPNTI
Protocol: The affinity of the new compounds for oestrogen receptors was determined by the ability to compete with ^3 H-labelled 17-β-estradiol in rat uterus cytosol preparation. After incubation, receptor-bound and receptor-unbound ligands were separated by a known dextrancharcoal method.

immature mouse uterus [1] = assay: oestrogenic effect, uterus weight of immature mice; format: in vivo; conditions: up to 5 mg/kg
[2] = test system: estradiol induced weight increase in immature mouse uterus; assay: antiestrogenic effect, inhibition of oestrogen-induced uterus weight increase in immature mice; format: in vivo
immature mouse uterus [3] = assay: progestanic effect, uterus weight of immature mice (alone or with medroxyprogesterone acetate); format: in vivo; set-up: reduction in the weight of a mouse uterus, given alone / reduction in the weight of uterus with medroxyprogesterone / reduction in the weights of mice uterus, given alone: concentration or dose not given beside the values
[4] = test system: MCF-7 cell line (human mammary adenocarcinoma); assay: anti-tumour effect in vitro, growth of MCF-7 cell line (bioluminescence assay, intracellular ATP); format: cell-based; conditions: read-out: Antitumour effect against MCF-7 cell line (IC50 = concentration of compound where 50% inhibition of cell growth could be seen)
Protocol: The anti-tumour effect was studied in vitro as follows:
The amount of living cells after 4 h, 24 h and 48 h incubations were determined by bioluminescence assay (intracellular ATP determination).
inhibition of cell growth could be seen.

[5] = test system: DMBA-induced rat mammary adenocarcinomas; assay: antitumour effect in vivo against DMBA-induced rat mammary adenocarcinoma; conditions: compared with compound 7
rat prostatic carcinoma = assay: antitumour effect against transplantable prostatic carcinoma; format: in vivo; conditions: 1 mg/kg, 12 days' treatment
Text: The anti-tumour effect was investigated in vivo against DMBA-induced rat mammary adenocarcinomas, transplantable mammary and ovarial adenocarcinoma and transplantable prostatic squamous cell carcinoma by the following methods: The activity of the molecules against other tumours was studied by administering the molecules by stomach tube to animals implanted with transplantable uterus sarcoma (mice) or prostatic adenocarcinoma (rats). Daily or twice weekly administration schedules were employed. NMRI mice (about 20 g, females) and Fischer 344 rats (about 200 g, males) were used. Estramustine phosphate served as positive control. Transplantable rat mammary adenocarcinoma was developed by inoculating pieces of DMBA-induced carcinomas subcutaneously to healthy mature female rats. A tumour which expressed malignant growth was selected for further transplantations. Other transplantable tumours were inoculated subcutaneously as washed cell suspension (10^7 cells/animal).

[6] = with medroxyprogesterone 0.06 mg/kg

How did the pIC50 (oestrogen receptors) turn out when `Oc1ccc([C@@]2(c3ccccc3)OCC[C@@H]2c2ccccc2)cc1` (relative stereo) [Compound 2, 2,3-diphenyl-2-(4-hydroxyphenyl)tetrahydrofuran] was run?
Its pIC50 is 6.00 to 7.00.

And the “estrogenic effect of their own (in words)” value (immature mouse uterus [1])?
The value was “no estrogenic effect of their own; also recorded: no antiestrogenic or estrogenic effect of its own”.

What about the “antiestrogenic effect of its own (in words)” value ([2]; up to 5 mg/kg) of the same molecule?
The value was “no antiestrogenic or estrogenic effect of its own”.

What about the “effect with estradiol (in words)” value ([2]; with estradiol 0.05 mg/kg) of the same molecule?
The value was “no synergism”.

And the “decrease of weight of mouse uterus” value (immature mouse uterus [3]; 0.05 mg/kg)?
The value was 50%.

What about the “effect given alone: progestanic (in words)” value (immature mouse uterus [3]; given alone) of the same molecule?
The value was “progestanic”.

And the “reduction in the weights of mice uterus, given alone” value (immature mouse uterus [3]; given alone, Table 2A)?
Its value is 50%.

And the “progestanic effect (in words)” value (immature mouse uterus [3]; immature mouse uterus)?
The value was “could purely be considered to be due to its progestanic effect”.

What about the “interaction with medroxyprogesterone (in words)” value (immature mouse uterus [3]; with medroxyprogesterone) of the same molecule?
Its value is “synergistic effect with medroxyprogesterone”.

What about the “effect with medroxyprogesterone (in words)” value (immature mouse uterus [3]; [6]) of the same molecule?
Its value is “synergistic”.

What about the “reduction in the weights of mice uterus with medroxyprogesterone, compared to control” value (immature mouse uterus [3]; [6]) of the same molecule?
Its value is 53%.

And the pIC50 [4]?
Its pIC50 is 5.00 to 5.30.

And the “antitumour effect against DMBA-induced mammary cancer (in words)” value [5]?
The value was “Antitumour effect less than that of compound 7”.

And the “size of prostatic tumour smaller than that of control” value (rat prostatic carcinoma)?
Its value is 29%.
